From US4665056A, “Dihydroorotic acid derivative and processes for preparing the same” (Tanabe Seiyaku Co., Ltd., priority 1984, dated 1987)

Experiments:
male STD/ddY mice [1] = assay: Increasing effect on spontaneous locomotor activity, oral administration; type: in vivo; settings: activity measured for 3 hours
Description: (§1) The pharmacological activities of test compounds estimated by oral administration.
(§2) Male STD/ddY mice were individually placed in Ambulometer (i.e., an apparatus for measuring spontaneous locomotor activity; manufactured by OHARA IKA Co.) for 30 minutes to acclimatize to the apparatus. Thereafter, a test compound dissolved in distilled water was orally administered to the mice and, immediately after administration of the test compound, the spontaneous locomotor activity was measured for 3 hours. Distilled water was administered to the control group of mice instead of the test compound solution.

male STD/ddY mice [2] = assay: Antagonistic effect on pentobarbital anesthesia, oral administration; type: in vivo; settings: oral administration 15 min before pentobarbital sodium 55 mg/kg i.p.
Description: as §1
A test compound dissolved in distilled water was orally administered to male STD/ddY mice. Fifteen minutes after the administration of the test compound, pentobarbital sodium was intraperitoneally administered to the mice at a dose of 55 mg/kg. The duration of anesthesia was measured as the time from the disappearance of righting reflex to the recovery thereof. Distilled water was administered to the control group of mice instead of the test compound solution.

male STD/ddY mice [3] = settings: published data (Brain Research Reviews 4, 389 (1982)); cited from earlier work
male STD/ddY mice [4] = assay: Antagonistic effect on reserpine-induced hypothermia, oral administration; type: in vivo; settings: TRH tartrate taken as 1, parallel line assay method
Description: as §1
(§3) A test compound dissolved in distilled water was orally administered to the mice, and the rectal temperature was measured 30, 60, 120, 180 and 300 minutes after the administration of the test compound. The increase in the body temperature of the medicated group of mice was compared with that of the control group of mice which received distilled water instead of the test compound solution.

male STD/ddY mice [5] = assay: Antagonistic effect on reserpine-induced hypothermia, intraperitoneal administration; type: in vivo; settings: TRH taken as 1, parallel line assay method
Description: as §3
(§4) The pharmacological activities of test compounds estimated by parenteral administration.
(§5) The experiments were carried out in the same manner as described in Experiment 1 except that a test compound dissolved in a physiological saline solution was administered intraperitoneally to mice and, in estimating the increasing effect on spontaneous locomotor activity, said spontaneous locomotor activity was measured for 60 minutes immediately after administration of the test compound.

male STD/ddY mice [6] = assay: Increasing effect on spontaneous locomotor activity, intraperitoneal administration; type: in vivo; settings: measured for 60 minutes, TRH taken as 1
Description: as §2, §4, §5

male STD/ddY mice [7] = assay: Antagonistic effect on pentobarbital anesthesia, intravenous administration; type: in vivo; settings: intravenous administration 10 min after pentobarbital sodium 55 mg/kg i.p., TRH taken as 1
Description: as §4
Pentobarbital sodium was intraperitoneally administered to male STD/ddY mice at a dose of 55 mg/kg. Ten minutes after the administration of pentobarbital sodium, a test compound dissolved in a physiological saline solution was intravenously administered to the mice which had lost the righting reflex. The duration of anesthesia was measured as the time from the end of administration of the test compound until the righting reflex regained. A physiological saline solution was administered to the control group of mice instead of the test compound solution.

male STD/ddY mice [8] = assay: Potentiating effect on action of Dopamine (L-Dopa in reserpinized mice); type: in vivo; settings: intraperitoneal administration, reserpine 3 mg/kg s.c. and L-Dopa 200 mg/kg i.p., TRH taken as 1
Description: as §4
Reserpine was subcutaneously administered to male STD/ddY mice at a dose of 3 mg/kg, and about 16 to 20 hours later, L-Dopa was intraperitoneally administered to the mice at a dose of 200 mg/kg. Thirty minutes after administration of L-Dopa, a test compound dissolved in a physiological saline solution was administered intraperitoneally to the mice (when TRH was used as the test compound, it was administered 45 minutes after administration of L-Dopa). Spontaneous locomotor activity was measured by ANIMEX (i.e., an apparatus for mesuring spontaneous locomotor activity; manufactured by FERAD Co.) for 15 minutes starting from one hour after administration of L-Dopa. A physiological saline solution was administered to the control group of mice instead of the test compound solution.

male JCL:SD rats [9] = assay: TSH-releasing activity (side effect), serum TSH by radioimmunoassay; type: in vivo; settings: intravenous administration, serum TSH 15 min after, TRH taken as 1, parallel line assay method
Description: A test compound dissolved in a 0.1% BSA (bovine serum albumin)-containing physiological saline solution was intravenously administered to male JCL:SD rats. Fifteen minutes after the administration, blood was taken from the abdominal aorta under anesthesia. Serum TSH levels were determined by the double-antibody radioimmunoassay method (Midgley et al., Endocrinology., 79, 10 (1966)). The BSA-containing physiological saline solution was administered to the control group of rats instead of the test compound solution.

male STD/ddY mice [10] = assay: Acute toxicity (LD50), intravenous; type: in vivo; settings: mortality 24 hours after administration
Description: A test compound was intravenously administered to male STD/ddY mice and the acute toxicity (LD50) thereof was determined from mortality of mice 24 hours after administration of the test compound.

male JCL:SD rats [11] = settings: TRH taken as 1; cited from earlier work

Compound	Minimum effective dose, increasing effect on spontaneous locomotor activity (male STD/ddY mice [1]) [mg/kg]	Minimum effective dose, antagonistic effect on pentobarbital anesthesia (male STD/ddY mice [2]) [mg/kg]	Therapeutic activity by oral administration	LD50 (published data) (male STD/ddY mice [3])	Potency ratio to TRH tartrate, antagonistic effect on reserpine-induced hypothermia (male STD/ddY mice [4])	Potency ratio to TRH, antagonistic effect on reserpine-induced hypothermia (male STD/ddY mice [5])	Potency ratio to TRH, increasing effect on spontaneous locomotor activity (male STD/ddY mice [6])	Potency ratio to TRH, antagonistic effect on pentobarbital anesthesia (male STD/ddY mice [7])	Potency ratio to TRH, potentiating effect on action of Dopamine (male STD/ddY mice [8])	Potency ratio to TRH, TSH-releasing activity (male JCL:SD rats [9])	LD50 (male STD/ddY mice [10])	Potency ratio to TRH, TSH-releasing activity (published data) (male JCL:SD rats [11])
NC(=O)[C@@H]1CCCN1C(=O)[C@H](Cc1cnc[nH]1)NC(=O)[C@@H]1CCC(=O)N1.O=C(O)C(O)C(O)C(=O)O [TRH tartrate]	> 100	> 100	–	–	–	–	–	–	–	–	–	–
NC(=O)[C@@H]1CCCN1C(=O)[C@H](Cc1cnc[nH]1)NC(=O)[C@@H]1CCC(=O)N1 [TRH, L-pyroglutamyl-L-histidyl-L-prolinamide]	–	–	no substantial therapeutic effects	1450 mg/kg, i.v.	–	–	–	–	–	–	–	–
CN1C(=O)C[C@@H](C(=O)N[C@@H](Cc2c[nH]cn2)C(=O)N2CCC[C@H]2C(N)=O)NC1=O [The compound of the present invention, (1-methyl-L-4,5-dihydroorotyl)-L-histidyl-L-prolinamide]	10	1	excellent therapeutic activity even by oral administration	–	91.3	31.4	27.4	2.7	18.5	1/30	1589 mg/kg, i.v.	–
NC(=O)[C@@H]1CCCN1C(=O)[C@H](Cc1c[nH]cn1)NC(=O)c1cc(=O)[nH]c(=O)[nH]1 [No. 2, Orotyl-L-histidyl-L-prolinamide]	–	–	–	1200 mg/kg, i.v.	13.0	7.4	3.8	1.9	2.6	–	–	–
NC(=O)[C@@H]1CCCN1C(=O)[C@H](Cc1c[nH]cn1)NC(=O)[C@@H]1CCC(=O)O1 [No. 1, (2,3,4,5-tetrahydro-2-oxo-L-5-furancarbonyl)-L-histidyl-L-prolinamide]	–	–	–	–	3.4	5.7	3.5	1.3	2.5	–	–	1/40
